Here are results for 1 compound from patent US12202827B2, “Aldosterone synthase inhibitor” (DAMIAN PHARMA AG, priority 2016, dated 2025).

Structures are written as SMILES.

Data set [1] is described as follows: Hygroscopicity, open flasks in unconditioned ambient air for 24 hours. As to conditions: open flask.
Protocol: 100 mg samples of the two crystalline salts were stored in open flasks for 24 hours side by side at room temperature in unconditioned ambient air and weight measurements occurred at time 0 and after 24 hours (Table 6).
For data set [2] the following is noted: literature; cited from earlier work.
[3] abbreviates: room temperature, unconditioned ambient air.

Take `Cl.N#Cc1ccc([C@H]2CCCc3cncn32)cc1`: the “Hygroscopicity (assessment in words)” value in data set [1] (ambient air) is “significant hygroscopicity”. Besides, in data set [1] (setting [3]), the Absolute weight was found to be 113.2 mg and the Weight increase is 13.1%. For the same compound, in data set [1] (room temperature, unconditioned ambient air, listed as Chloride Salt), the Weight increase is on record as 13.1%. Further, the “Hygroscopicity (in words)” value in data set [2] was “highly hygroscopic”.
